Assay results taken from patent publication US20100272706A1, “ANTIVIRALS” (priority 2007, published 2010).
Like-named read-outs stand apart in the source and are kept apart here.

Tests used:
Format in all cases: cell-based
[1] = test system: vaccinia virus mature virions (EGFP-MV)
[2] = test system: MV-induced blebbing of HeLa cells; details: microscopy
[3] = test system: vaccinia virus mature virions (MV entry)
[4] = test system: vaccinia virus mature virions (mYFP-MV)
[5] = test system: vaccinia virus mature virions (mYFP-MV); remark: listed apart in the source
[6] = test system: vaccinia virus mature virions

For `Cc1ccc2c(c1)C(=O)C1(O)CCN(c3ccccc3)C1=N2` (centres unmarked) [Blebbistatin], the “inhibition of viral infection” value [1] was 62%, the MV-induced bleb formation [2] was “prevented formation of the blebs” and the MV-induced bleb formation ([2]; listed as blebbistatin) was “inhibited bleb-formation”.

With `O=C(Nc1cccc(Nc2cc(Nc3cccc(C(F)(F)F)c3)ncn2)c1)C1CC1` [EGFR inhibitor 324674] the MV entry [3] was “effectively blocks MV entry”.

With `CCN(c1nc(N)c(C(=O)N=C(N)N)nc1Cl)C(C)C` [EIPA, 5-N-ethyl-N-isopropyl-amiloride] the “inhibition of viral infection” value [1] was 90%, the MV-induced bleb formation [2] was “inhibited bleb-formation” and the “internalization of MV into FITC-dextran positive vacuoles” value [4] was “prevented internalization”.

`O=c1c(-c2ccc(O)cc2)coc2cc(O)cc(O)c12` [genistein] was tested, and the “inhibition of viral infection” value [1] was “up to 82%”.

For `COC[C@H]1OC(=O)c2coc3c2[C@@]1(C)C1=C(C3=O)[C@@H]2CCC(=O)[C@@]2(C)C[C@H]1OC(C)=O` [wortmannin], the “inhibition of viral infection” value [1] was “up to 63%”.

For ANX5, the infectivity [1] was “no effect”, the “inhibition of infection by masking of viral PS” value [1] was 95% and the “MV binding to cells” value [5] was “without affecting MV binding”. The viral binding [5] was “no effect”.

phosphatidylserine [PS] was tested, and the “fraction of original infectivity and plaque formation rescued” value [6] was 90%.
